Our source for the IC50 values is patent publication US20230416227A1, “PLASMA KALLIKREIN INHIBITORS” (Merck Sharp & Dohme LLC, priority 2020, published 2023).

In one experiment the target is human factor XIa (Homo sapiens, UniProt P03951). Description: Factor XIa Assay. The note with it: human factor XIa 0.04 nM, substrate GPR-AFC, 30 min pre-incubation at 25° C., pH 7.4; read-out: FXIa IC50. The class given is biochemical.
For another experiment, the target named is T1, Human plasma kallikrein (Homo sapiens, UniProt P03952).
T1 construct: yields a heavy chain (371 amino acids) and a light chain (248 amino acids); purchased Enzyme Research Laboratories
As to the kind of experiment: Plasma Kallikrein Assay. The format is biochemical. The note with it: purified Human plasma kallikrein 0.5 nM, substrate Acetyl-K-P-R-AFC, pH 7.4.

Chain of human factor XIa (P03951 388-625 limits assumed): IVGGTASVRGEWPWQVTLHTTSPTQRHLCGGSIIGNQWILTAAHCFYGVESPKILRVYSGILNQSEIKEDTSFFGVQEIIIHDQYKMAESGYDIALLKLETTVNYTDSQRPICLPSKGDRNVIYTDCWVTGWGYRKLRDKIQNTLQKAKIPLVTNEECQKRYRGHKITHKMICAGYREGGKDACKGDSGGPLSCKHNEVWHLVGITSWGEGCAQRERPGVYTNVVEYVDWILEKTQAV
Chain of human factor XIa (P03951 19-387 partner limits assumed): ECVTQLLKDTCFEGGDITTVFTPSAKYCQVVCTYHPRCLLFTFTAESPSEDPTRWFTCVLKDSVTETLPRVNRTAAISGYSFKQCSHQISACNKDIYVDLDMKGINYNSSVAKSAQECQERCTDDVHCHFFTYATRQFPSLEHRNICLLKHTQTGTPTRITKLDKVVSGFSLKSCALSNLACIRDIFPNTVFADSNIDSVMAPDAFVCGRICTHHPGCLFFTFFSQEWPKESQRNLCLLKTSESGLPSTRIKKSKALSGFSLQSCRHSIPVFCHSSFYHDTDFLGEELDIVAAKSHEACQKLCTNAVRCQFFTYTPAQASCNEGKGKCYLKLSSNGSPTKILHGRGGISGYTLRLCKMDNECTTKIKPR
T1 sequence (P03952 391-638 limits assumed): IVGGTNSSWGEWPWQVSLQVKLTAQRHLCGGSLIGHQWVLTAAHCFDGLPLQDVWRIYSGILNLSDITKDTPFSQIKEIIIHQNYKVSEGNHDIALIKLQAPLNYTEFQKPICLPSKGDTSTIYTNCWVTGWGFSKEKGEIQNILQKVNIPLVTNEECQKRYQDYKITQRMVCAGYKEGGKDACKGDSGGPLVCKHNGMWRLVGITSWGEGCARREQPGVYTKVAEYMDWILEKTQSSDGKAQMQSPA
T1 sequence (P03952 20-390 partner limits assumed): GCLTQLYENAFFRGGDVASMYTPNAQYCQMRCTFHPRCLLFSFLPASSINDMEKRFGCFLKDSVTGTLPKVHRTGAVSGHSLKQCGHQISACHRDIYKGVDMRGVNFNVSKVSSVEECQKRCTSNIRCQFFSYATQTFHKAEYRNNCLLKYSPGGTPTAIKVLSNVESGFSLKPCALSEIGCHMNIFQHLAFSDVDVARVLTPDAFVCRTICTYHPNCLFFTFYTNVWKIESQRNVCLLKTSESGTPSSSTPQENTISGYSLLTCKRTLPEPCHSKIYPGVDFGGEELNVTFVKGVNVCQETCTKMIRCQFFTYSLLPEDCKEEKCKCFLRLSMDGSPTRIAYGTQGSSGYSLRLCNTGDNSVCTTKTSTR

As to `CO[C@H]1CN(C[C@@H]2CCN2c2ncc(C(C)n3cc(NC(=O)c4cncc(-c5c(C(F)F)ccc(Cl)c5F)n4)cn3)cn2)C[C@@H]1O` (stereo partly drawn) [Example 165, 6-(3-Chloro-6-(difluoromethyl)-2-fluorophenyl)-N-(1-(1-(2-((S)-2-(((3S,4S)-3-hydroxy-4-methoxypyrrolidin-1-yl)methyl)azetidin-1-yl)pyrimidin-5-yl)ethyl)-1H-pyrazol-4-yl)pyrazine-2-carboxamide], the IC50 at human factor XIa was 4.27 µM; on Human plasma kallikrein, 1.4 nM.

On to `CC(c1cnc(N2CC[C@H]2CN2CCC(C)(O)C2)nc1)n1cc(NC(=O)c2cncc(-c3c(C(F)F)ccc(Cl)c3F)n2)cn1` (stereo partly drawn) [Example 166, 6-(3-Chloro-6-(difluoromethyl)-2-fluorophenyl)-N-(1-(1-(2-((2S)-2-((3-hydroxy-3-methylpyrrolidin-1-yl)methyl)azetidin-1-yl)pyrimidin-5-yl)ethyl)-1H-pyrazol-4-yl)pyrazine-2-carboxamide], for which the half-inhibitory concentration (IC50) on human factor XIa stood at 5.77 µM; on Human plasma kallikrein, 0.7 nM.

On to `CC(c1cnc(N2CC[C@H]2CN2C[C@@H](O)[C@@H](O)C2)nc1)n1cc(NC(=O)c2cncc(-c3c(C(F)F)ccc(Cl)c3F)n2)cn1` (stereo partly drawn) [Example 167, 6-(3-Chloro-6-(difluoromethyl)-2-fluorophenyl)-N-(1-(1-(2-((S)-2-(((3R,4S)-3,4-dihydroxypyrrolidin-1-yl)methyl)azetidin-1-yl)pyrimidin-5-yl)ethyl)-1H-pyrazol-4-yl)pyrazine-2-carboxamide], for which the IC50 at human factor XIa came to 5.82 µM; at Human plasma kallikrein it was 1 nM.

For `CC(c1cnc(N2CC[C@H]2CN2C[C@@H](O)[C@H](O)C2)nc1)n1cc(NC(=O)c2cncc(-c3c(C(F)F)ccc(Cl)c3F)n2)cn1` (stereo partly drawn) [Example 168, 6-(3-Chloro-6-(difluoromethyl)-2-fluorophenyl)-N-(1-(1-(2-((S)-2-(((3R,4R)-3,4-dihydroxypyrrolidin-1-yl)methyl)azetidin-1-yl)pyrimidin-5-yl)ethyl)-1H-pyrazol-4-yl)pyrazine-2-carboxamide], the IC50 at human factor XIa was 6.35 µM; against Human plasma kallikrein, 2 nM.

Take `CC(c1cnc(N2CC[C@H]2CN2C[C@@H](O)[C@H](F)C2)nc1)n1cc(NC(=O)c2cncc(-c3c(C(F)F)ccc(Cl)c3F)n2)cn1` (stereo partly drawn) [Example 169, 6-(3-Chloro-6-(difluoromethyl)-2-fluorophenyl)-N-(1-(1-(2-((S)-2-(((3R,4R)-3-fluoro-4-hydroxypyrrolidin-1-yl)methyl)azetidin-1-yl)pyrimidin-5-yl)ethyl)-1H-pyrazol-4-yl)pyrazine-2-carboxamide]: the figures for the concentration for half-maximal inhibition (IC50) at human factor XIa and against Human plasma kallikrein were 9.18 µM and 1.5 nM, respectively.

As to `CC(c1cnc(N2CC[C@H]2CN2CC(O)(C(C)C)C2)nc1)n1cc(NC(=O)c2cncc(-c3c(C(F)F)ccc(Cl)c3F)n2)cn1` (stereo partly drawn) [Example 173, 6-(3-Chloro-6-(difluoromethyl)-2-fluorophenyl)-N-(1-(1-(2-((S)-2-((3-hydroxy-3-isopropylazetidin-1-yl)methyl)azetidin-1-yl)pyrimidin-5-yl)ethyl)-1H-pyrazol-4-yl)pyrazine-2-carboxamide], the IC50 at human factor XIa was 8.92 µM; against Human plasma kallikrein it was 1 nM.

As to `CC(c1cnc(N2CC[C@H]2CN2CC(C(C)(C)O)C2)nc1)n1cc(NC(=O)c2cncc(-c3c(C(F)F)ccc(Cl)c3F)n2)cn1` (stereo partly drawn) [Example 175, 6-(3-Chloro-6-(difluoromethyl)-2-fluorophenyl)-N-(1-(1-(2-((S)-2-((3-(2-hydroxypropan-2-yl)azetidin-1-yl)methyl)azetidin-1-yl)pyrimidin-5-yl)ethyl)-1H-pyrazol-4-yl)pyrazine-2-carboxamide], the results for the IC50 on human factor XIa and against Human plasma kallikrein were 5.08 µM and 0.6 nM, respectively.

In the case of `CC(c1cnc(N2CC[C@H]2CN2CCC(O)CC2)nc1)n1cc(NC(=O)c2cncc(-c3c(C(F)F)ccc(Cl)c3F)n2)cn1` (stereo partly drawn) [Example 179, 6-(3-Chloro-6-(difluoromethyl)-2-fluorophenyl)-N-(1-(1-(2-((S)-2-((4-hydroxypiperidin-1-yl)methyl)azetidin-1-yl)pyrimidin-5-yl)ethyl)-1H-pyrazol-4-yl)pyrazine-2-carboxamide], the IC50 on human factor XIa stood at 9.43 µM; on Human plasma kallikrein, 0.7 nM.

In the case of `CC(c1cnc(N2CC[C@H]2[C@@H](C)N2C[C@@H](O)[C@@H](O)C2)nc1)n1cc(NC(=O)c2cncc(-c3c(C(F)F)ccc(Cl)c3F)n2)cn1` (stereo partly drawn) [Example 187, 6-(3-Chloro-6-(difluoromethyl)-2-fluorophenyl)-N-(1-(1-(2-((S)-2-((R)-1-((3R,4S)-3,4-dihydroxypyrrolidin-1-yl)ethyl)azetidin-1-yl)pyrimidin-5-yl)ethyl)-1H-pyrazol-4-yl)pyrazine-2-carboxamide], the IC50 at human factor XIa was 3.33 µM; against Human plasma kallikrein, 1 nM.

On to `CC(c1cnc(N2CC[C@H]2[C@@H](C)N2C[C@@H](O)[C@H](O)C2)nc1)n1cc(NC(=O)c2cncc(-c3c(C(F)F)ccc(Cl)c3F)n2)cn1` (stereo partly drawn) [Example 188, 6-(3-Chloro-6-(difluoromethyl)-2-fluorophenyl)-N-(1-(1-(2-((S)-2-((R)-1-((3R,4R)-3,4-dihydroxypyrrolidin-1-yl)ethyl)azetidin-1-yl)pyrimidin-5-yl)ethyl)-1H-pyrazol-4-yl)pyrazine-2-carboxamide], for which the values for the concentration for half-maximal inhibition (IC50) at human factor XIa and against Human plasma kallikrein were 3.33 µM and 3.2 nM, respectively.

Regarding `C[C@@H](c1cnc(N2C[C@@H]3C[C@@H]3[C@@H]2C#N)nc1)n1cc(NC(=O)c2cncc(-c3c(C(F)F)ccc(Cl)c3F)n2)cn1` [Example 199, 6-(3-chloro-6-(difluoromethyl)-2-fluorophenyl)-N-(1-((S)-1-(2-((1S,2R,5R)-2-cyano-3-azabicyclo[3.1.0]hexan-3-yl)pyrimidin-5-yl)ethyl)-1H-pyrazol-4-yl)pyrazine-2-carboxamide], the values for the IC50 on human factor XIa and at Human plasma kallikrein were 4.79 µM and 1.5 nM, respectively.

Consider `NC(=O)c1cc(N2CCC2)ncc1Cn1cc(NC(=O)c2cncc(-c3c(C(F)F)ccc(Cl)c3F)n2)cn1` [Example 206, N-(1-((6-(Azetidin-1-yl)-4-carbamoylpyridin-3-yl)methyl)-1H-pyrazol-4-yl)-6-(3-chloro-6-(difluoromethyl)-2-fluorophenvl)pyrazine-2-carboxamide], for which the half-inhibitory concentration (IC50) stood at 0.82 µM on human factor XIa and 24.4 nM on Human plasma kallikrein.

Consider `CS(=O)(=O)c1ccc(Cl)c(F)c1-c1cncc(C(=O)Nc2cnn(Cc3cnc(N4CCC4)nc3)c2)n1` [Example 207, N-(1-((2-(Azetidin-1-yl)pyrimidin-5-yl)methyl)-1H-pyrazol-4-yl)-6-(3-chloro-2-fluoro-6-(methylsulfonyl)phenyl)pyrazine-2-carboxamide], for which the IC50 on human factor XIa worked out at 0.675 µM; against Human plasma kallikrein it was 17.2 nM.

In the case of `COc1ccc(C(F)F)c(-c2cncc(C(=O)Nc3cnn(Cc4cnc(N5CCC5)nc4)c3)n2)c1F` [Example 208, N-(1-((2-(Azetidin-1-yl)pyrimidin-5-yl)methyl)-1H-pyrazol-4-yl)-6-(6-(difluoromethyl)-2-fluoro-3-methoxyphenyl)pyrazine-2-carboxamide], the half-maximal inhibitory concentration (IC50) at human factor XIa is 0.827 µM; at Human plasma kallikrein, 33.9 nM.
